Measurements: paper PMC11678777, “Haloperidol-Induced Catalepsy and Its Correlations with Acetylcholinesterase Activity in Different Brain Structures of Mice” (Neurology International, 2024)

Biological target: T1, commercial enzyme AChE from Electrophorus electricus (Electrophorus electricus, UniProt O42275)
T1 construct: commercial enzyme (Sigma), native
Experiment: Ellman assay, […] nm, 96-well plate
Type: biochemical
Details: AChE 1 U/mL; phosphate buffer 0.1 mol/L pH 8.0; 10 µL of 20 mmol/L acetylthiocholine iodide in 200 µL; 10 min preincubation, room temperature; Haldol formulation

T1 sequence (O42275 24-633): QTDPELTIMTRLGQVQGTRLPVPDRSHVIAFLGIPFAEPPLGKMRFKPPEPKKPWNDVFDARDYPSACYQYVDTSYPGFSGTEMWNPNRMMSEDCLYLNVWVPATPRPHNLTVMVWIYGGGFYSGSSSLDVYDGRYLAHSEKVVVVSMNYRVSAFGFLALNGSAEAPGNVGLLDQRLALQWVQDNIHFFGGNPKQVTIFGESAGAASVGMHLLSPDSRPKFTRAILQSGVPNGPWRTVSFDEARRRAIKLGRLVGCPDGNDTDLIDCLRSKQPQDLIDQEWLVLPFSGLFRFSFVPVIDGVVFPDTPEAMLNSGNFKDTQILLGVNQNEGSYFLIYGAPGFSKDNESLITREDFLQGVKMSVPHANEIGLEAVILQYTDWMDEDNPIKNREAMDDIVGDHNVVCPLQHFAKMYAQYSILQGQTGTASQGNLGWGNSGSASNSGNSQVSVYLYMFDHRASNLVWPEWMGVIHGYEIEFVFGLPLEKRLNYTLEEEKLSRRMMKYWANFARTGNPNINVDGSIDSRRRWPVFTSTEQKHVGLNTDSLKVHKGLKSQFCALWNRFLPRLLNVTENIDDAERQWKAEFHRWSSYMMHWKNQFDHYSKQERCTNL

SMILES: O=C(CCCN1CCC(O)(c2ccc(Cl)cc2)CC1)c1ccc(F)cc1 [Haloperidol]
- dose-dependent inhibition: Hal inhibited commercial AChE activity in a dose-dependent manner
